Test results taken from patent US6872414B1, “Anhydrous lactitol crystals, a product containing the same and a process for the preparation thereof as well as use thereof” (Xyrofin Oy, priority 1999, dated 2005).
Like-named read-outs stand apart in the source and are kept apart here. Each block holds one compound with its values, some of them ahead of it.

What was measured:
[1] = prior art reports; cited from earlier work
[2] = Storability of crystals at room temperature; type: physicochemical; settings: room temperatures, relative humidity below 60%
Source text: The new crystalline orthorhombic anhydrous lactitol β has a good flowability and storability, since it is stable at room temperatures, the relative humidity being below 60%.

[3] = Crystal form after milling (DSC, X-ray powder diffraction); type: physicochemical; settings: laboratory hammer mill, 10 g/min, 600 rpm
Protocol: Good quality anhydrous β lactitol crystals (lactitol assay 99.9%, enthalpy 169.4±0.5 J/g) was milled with a small laboratory hammer mill (Culatti). The feed rate was 10 g/min and the hammer speed 600 rpm. Fine lactitol particles were obtained.

[4] = Hygroscopicity / water sorption of lactitol crystals; type: physicochemical
Protocol: The water sorption of a sample of β crystals was less than about 0.3% of water in 45 days even when the relative humidity of the ambient air was 75% at 40° C.

SMILES: OC[C@@H](O)[C@@H](O[C@@H]1O[C@H](CO)[C@H](O)[C@H](O)[C@H]1O)[C@H](O)[C@@H](O)CO [A1 anhydrous lactitol, lactitol]
hygroscopicity [1]: hygroscopic

stability / storability [2]: stable
crystal form after milling [3]: still in the anhydrous β form
hygroscopicity [4]: very low hygroscopicity
hygroscopicity ([4]; 25° C. and 60% relative humidity): very low hygroscopicity
hygroscopicity ([4]; 40° C. and 75% relative humidity): very low hygroscopicity
water sorption ([4]; 40° C., 75% relative humidity, 45 days): less than 0.3%
SMILES: OC[C@@H](O)[C@@H](O[C@@H]1O[C@H](CO)[C@H](O)[C@H](O)[C@H]1O)[C@H](O)[C@@H](O)CO [anhydrous lactitol β, lactitol]

SMILES: OC[C@@H](O)[C@@H](O[C@@H]1O[C@H](CO)[C@H](O)[C@H](O)[C@H]1O)[C@H](O)[C@@H](O)CO [lactitol anhydride]
hygroscopicity [1]: highly hygroscopic

SMILES: OC[C@@H](O)[C@@H](O[C@@H]1O[C@H](CO)[C@H](O)[C@H](O)[C@H]1O)[C@H](O)[C@@H](O)CO [α lactitol, lactitol]
hygroscopicity [1]: low hygroscopicity
